Results published in patent US20220135591A1, “HETEROCYCLIC COMPOUNDS AS INHIBITORS OF MONOACYLGLYCEROL LIPASE (MAGL)” (Hoffmann-La Roche Inc., priority 2019, published 2022).

Each compound was assayed against T1, MAGL (recombinant wild-type) (Homo sapiens, UniProt Q99685) (assay: 4-NPA assay: MAGL inhibitory activity by hydrolysis of 4-nitrophenylacetate, absorbance at 405 nm). Settings: 4-NPA assay (values without footnote [b]).
T1 sequence (Q99685 1-303): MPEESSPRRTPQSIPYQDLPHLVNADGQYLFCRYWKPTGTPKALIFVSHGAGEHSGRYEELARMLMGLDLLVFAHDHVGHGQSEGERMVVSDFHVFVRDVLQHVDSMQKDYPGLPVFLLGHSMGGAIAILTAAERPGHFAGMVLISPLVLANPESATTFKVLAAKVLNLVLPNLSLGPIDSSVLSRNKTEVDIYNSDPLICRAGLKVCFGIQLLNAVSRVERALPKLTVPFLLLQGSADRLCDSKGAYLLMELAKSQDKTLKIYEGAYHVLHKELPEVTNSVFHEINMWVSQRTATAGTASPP
Format: biochemical
Summary of the method: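 Final assay: 1 nM MAGL and 300 μM 4-nitrophenylacetate in 50 mM Tris, 1 mM EDTA, at RT. Compounds (25 μM–1.7 nM, 3-fold steps) were preincubated 15 min with enzyme. A405 was read 5 min after substrate addition and again after 80 min; activity was taken as the difference between reads.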

| IC50 [µM] | SMILES |
| --- | --- |
| 0.009 | Cc1ccc2oc(N3CCN(C(=O)c4ccc(OCC5(C)CC5)c(-c5ccc(CO)cc5)c4)CC3)nc2n1 [Example 187, [3-[4-(hydroxymethyl)phenyl]-4-[(1-methylcyclopropyl)methoxy]phenyl]-[4-(5-methyl-[1,3]oxazolo[4,5-b]pyridin-2-yl)piperazin-1-yl]methanone] |
| 0.165 | Cc1ccc2oc(N3CCN(C(=O)c4cc(OCC5(C)CC5)cc(-c5ccc(CO)cc5)c4)CC3)nc2n1 [Example 188, [3-[4-(hydroxymethyl)phenyl]-5-[(1-methylcyclopropyl)methoxy]phenyl]-[4-(5-methyl-[1,3]oxazolo[4,5-b]pyridin-2-yl)piperazin-1-yl]methanone] |
| 2.49 | CC(C)(C)c1nc(-c2ccc(C(=O)N3CCN(c4nc5nc(C6CC6)ccc5o4)CC3)cc2)no1 [Example 189, (4-(5-(tert-butyl)-1,2,4-oxadiazol-3-yl)phenyl)(4-(5-cyclopropyloxazolo[4,5-b]pyridin-2-yl)piperazin-1-yl)methanone] |
| 4.12 | O=C(c1ccc(N2CC3(CCCO3)C2)cc1)N1CCN(c2nc3ncccc3o2)CC1 [Example 192, (4-(5-oxa-2-azaspiro[3.4]octan-2-yl)phenyl)(4-(oxazolo[4,5-b]pyridin-2-yl)piperazin-1-yl)methanone] |
| 0.355 | CC(OC1CN(c2ccc(C(=O)N3CCN(c4nc5ncccc5o4)CC3)cc2)C1)C(F)(F)F (stereo not shown) [Example 193, (4-(oxazolo[4,5-b]pyridin-2-yl)piperazin-1-yl)(4-(3-((1,1,1-trifluoropropan-2-yl)oxy)azetidin-1-yl)phenyl)methanone] |
| 0.486 | Cc1ccc2oc(N3CCN(C(=O)c4ccc(N5CC6(CCCO6)C5)cc4)CC3)nc2n1 [Example 194, (4-(5-oxa-2-azaspiro[3.4]octan-2-yl)phenyl)(4-(5-methyloxazolo[4,5-b]pyridin-2-yl)piperazin-1-yl)methanone] |
| 0.039 | Cc1ccc2oc(N3CCN(C(=O)c4ccc(N5CC(OC(C)C(F)(F)F)C5)cc4)CC3)nc2n1 (stereo not shown) [Example 195, (4-(5-methyloxazolo[4,5-b]pyridin-2-yl)piperazin-1-yl)(4-(3-((1,1,1-trifluoropropan-2-yl)oxy)azetidin-1-yl)phenyl)methanone] |
| 0.441 | O=C(c1ccc(N2CC(Oc3ccccc3)C2)cc1)N1CCN(c2nc3ncccc3o2)CC1 [Example 196, (4-(oxazolo[4,5-b]pyridin-2-yl)piperazin-1-yl)(4-(3-phenoxyazetidin-1-yl)phenyl)methanone] |
| 0.471 | COc1ccc2oc(N3CCN(C(=O)c4ccc(-c5noc(C(C)(C)C)n5)cc4)CC3)nc2n1 [Example 197, (4-(5-(tert-butyl)-1,2,4-oxadiazol-3-yl)phenyl)(4-(5-methoxyoxazolo[4,5-b]pyridin-2-yl)piperazin-1-yl)methanone] |
| 0.046 | Cc1ccc2oc(N3CCN(C(=O)c4ccc(N5CC(Oc6ccccc6)C5)cc4)CC3)nc2n1 [Example 198, (4-(5-methyloxazolo[4,5-b]pyridin-2-yl)piperazin-1-yl)(4-(3-phenoxyazetidin-1-yl)phenyl)methanone] |
| 0.625 | Cc1ccc2oc(N3CCN(C(=O)c4ccc(OCc5cccc(Cl)c5)c(-c5ncc[nH]5)c4)CC3)nc2n1 [Example 199, [4-[(3-chlorophenyl)methoxy]-3-(1H-imidazol-2-yl)phenyl]-[4-(5-methyl-[1,3]oxazolo[4,5-b]pyridin-2-yl)piperazin-1-yl]methanone] |
| 0.015 | Cc1ccc2oc(N3CCN(C(=O)c4ccc(N5CC(O[C@@H](C)C(F)(F)F)C5)cc4)CC3)nc2n1 [Example 200, (S)-(4-(5-methyloxazolo[4,5-b]pyridin-2-yl)piperazin-1-yl)(4-(3-((1,1,1-trifluoropropan-2-yl)oxy)azetidin-1-yl)phenyl)methanone] |
| 0.038 | Cc1ccc2oc(N3CCN(C(=O)c4ccc(N5CC(O[C@H](C)C(F)(F)F)C5)cc4)CC3)nc2n1 [Example 201, (R)-(4-(5-methyloxazolo[4,5-b]pyridin-2-yl)piperazin-1-yl)(4-(3-((1,1,1-trifluoropropan-2-yl)oxy)azetidin-1-yl)phenyl)methanone] |
